Each structure is given as a SMILES string. “Also recorded” adds a separate entry of the source. Residues, ends and D or L forms follow the SMILES beside them.

These results are taken from EP2873675A1, “Peptide-based peroxidase inhibitors and methods of using same” (The Medical College of Wisconsin, Inc., priority 2013, dated 2015).

Assay [1] relates to MPO. The assay can be described thus: MPO-catalyzed HOCl production (taurine/TMB assay). Type of assay: biochemical. How it is done:
MPO-mediated HOCl Production. MPO (20 nM) was incubated with H2O2 (50 µM), NaCl (150 mM), taurine (5 mM) and increasing concentrations of KYC in phosphate buffer (100 mM, pH 7.4) which also contained diethylene triamine pentaacetic acid (DTPA, 100 µM) to prevent non-specific, divalent metal cation oxidation for 30 min. Reactions were halted by addition of catalase. Chlorotaurine was quantified using the 3,3-,5,5-tetramethylbenzidine (TMB) assay. Briefly, 400 µL of reaction solution was mixed with 100 µL of 2 mM TMB, 100 µM NaI containing 10% dimethylformamide (DMF) in 400 mM acetate buffer (pH 5.4). After 5 min, absorbance (650 nm) was recorded on a UV/Vis spectrophotometer (Agilent Model 8453).
MPO-catalyzed HOCl Production: MPO (20 nM) was incubated with H2O2 (50 µM), NaCl (150 mM), taurine (5 mM) and increasing concentrations of KYC in a phosphate buffer (100 mM, pH 7.4) containing diethylene triamine pentaacetic acid (DTPA, 100 µM) to prevent non-specific, divalent metal cation oxidation for 30 min. Reactions were halted by addition of catalase (2,000 units/mL). Chlorotaurine was quantified using the TMB assay (66). Briefly, 400 µL of reaction solution was mixed with 100 µL of 2 mM TMB, 100 µM NaI containing 10% dimethylformamide (DMF) in 400 mM acetate buffer (pH 5.4). After 5 min, absorbance (650 nm) was recorded on a UV/Vis spectrophotometer (Agilent Model 8453).

A further assay relates to C57BL/6J mice. The assay can be described thus: Acute lung injury: pulmonary retention of Q-dot labeled EMPs. Type of assay: in vivo. As to conditions: pretreatment and treatment of EMP-injected mice. How it is done: KYC Inhibits Acute Lung Injury. Inflammation and sepsis induce the release of endothelial cell microparticles (EMPs). Increased production of EMPs is hypothesized to play a causal role in the mechanisms mediating acute lung injury (ALI). To test this hypothesis, the inventors incubated human umbilical vein endothelial cells with PAI-1, which is well-recognized for inducing endothelial cells to generate EMPs. The EMPs were collected by ultracentrifugation, resuspended in physiological saline solution and then labeled with Q-dots. The Q-dot labeled EMPs were counted and then injected into C57BL/6J mice to achieve a final concentration of 100,000 EMPs/mL of blood. Mice were pretreated with phosphate buffered saline (Fig. 6) or KYC and then were injected with Q-dot labeled EMPs alone or Q-dot labeled EMPs plus KYC (Fig. 6).

Assay [2] deals with OVA-sensitized C57BL/6J mice. The assay can be described thus: OVA murine model of experimentally-induced asthma (lung histology). Type of assay: in vivo. Conditions: 0.3 mg/kg every other day for 10 days. From the text:
Murine Model of Experimentally-Induced Asthma. C57BL/6J mice (12-14 wk old) from Jackson Laboratory (Bar Harbor, ME) were housed in sterile autoclavable microisolation cages and fed standard laboratory mouse chow and water ad libitum. All protocols were approved by the Institutional Animal Care and Use Committee (IACUC) of the Medical College of Wisconsin.
C57BL/6J mice were divided into three groups; a control group (Control), an ovalbumin (OVA)-sensitized group and an OVA-sensitized group treated with KYC. OVA sensitization was achieved using a modification of a protocol previously described by de Siqueira et al^15 (Fig. 1). […] When mice inhale aerosolized OVA, robust allergic responses are routinely observed.
Briefly, on day one, mice were anesthetized (halothane; Halocarbon Laboratories, River Edge, NJ) and a heat-denatured OVA fragment (∼80 mg, 5 × 2 × 2 mm) was implanted subcutaneously in the dorsal aspect of the neck. The incision was closed with stainless steel clips and the mouse was allowed to recover. Implantation of the heat-denatured OVA fragment initiates sensitization. On day fifteen, the implanted mice were exposed to aerosolized OVA (6% in PBS) for 30 minutes every other day for ten days. Twenty-four hours after the last OVA challenge, the mice were deeply anesthetized (halothane), sacrificed by exsanguination and the lungs removed for analysis. […]

Assay [3] concerns MPO. The assay can be described thus: MPO-mediated LDL oxidation (conjugated diene formation, absorbance at 234 nm). Type of assay: biochemical. Conditions: for conjugated diene formation in the LDL solution: for more than 2 hours. How it is done:
MPO-mediated oxidation of LDL. Reaction mixtures contained LDL (0.15 mg/ml), NaNO2 (100 µM), H2O2 (300 µM), MPO (20 nM) and various concentrations of KYC in a potassium phosphate buffer (100 mM, pH 7.4) containing DTPA (100 µM). LDL oxidation was monitored at 234 nm at room temperature on a HP UV/VIS spectrometer. Absorbance traces represent the average of duplicate experiments.
MPO-mediated LDL Oxidation. Reaction mixtures contained LDL (0.15 mg/mL), NaNO2 (100 µM), H2O2 (100 µM), MPO (20 nM) and increasing concentrations of KYC in a phosphate buffer (100 mM, pH 7.4) containing DTPA (100 µM). Rates of LDL oxidation were monitored at room temperature at 234 nm, the wavelength maximum for conjugated dienes.
MPO-mediated LDL Conjugated Diene Formation: Reaction mixtures contained LDL (0.15 mg/mL), NaNO2 (100 µM), H2O2 (100 µM), MPO (20 nM) and increasing concentrations of KYC or equimolar concentrations of various compounds in a phosphate buffer (100 mM, pH 7.4) containing DTPA (100 µM). Rates of LDL conjugated diene formation were determined by following changes in absorbance at 234 nm, the wavelength maximum for conjugated dienes, on a UV-Vis spectrophotometer (Agilent Model 8453) at room temperature.

By IC50 is commonly meant the midpoint of a concentration-inhibition curve. Higher therefore signals a need for much substance. Consider `CC(=O)N[C@@H](CCCCN)C(=O)N[C@@H](Cc1ccc(O)cc1)C(=O)N[C@@H](CS)C(N)=O` [KYC, N-acetyl Lysyltyrosylcysteine amide] (Ac-Lys-Tyr-Cys-NH2), for which the “MPO-catalyzed HOCl production, comparison at equimolar concentration” value in the assay with MPO [1] (12.5 µM) is “comparable to that of tryptophan; also recorded: significantly more effective at inhibiting MPO-dependent HOCl production than GSH”. For the same compound, the “inhibition of HOCl production” value in the assay with MPO [1] (12.5 µM) is on record as ~75%. In the assay on MPO [1] (25 µM), the “MPO-dependent HOCl production” value was “completely inhibits; also recorded: completely ablated”. Moreover, the IC50 with MPO [1] (MPO 20 nM, H2O2 50 µM, NaCl 150 mM, 30 min) was ~7 µM. Further, in the assay on C57BL/6J mice, the “pulmonary retention of Q-dot labeled EMPs” value is given as “dramatically decreases pulmonary retention”. In addition, the “eosinophil infiltration in the lungs” value in assay [2] (H&E) is recorded as “markedly reduce eosinophil infiltration to essentially control levels”. Besides, the “collagen deposition in the lungs” value in assay [2] (McLetchie trichrome) is “markedly reduces collagen deposition to control levels”. In addition, the “lag time of conjugated diene formation” value in the assay on MPO [3] (4 µM, MPO/H2O2/nitrite, H2O2 300 µM, lag time without peptide 25 min) was 90 min. The “reduction of the rate of LDL oxidation” value in the assay with MPO [3] (4 µM, at the end of the 2 hour incubation, on the basis of absorbance values) is listed as ~80%. The “conjugated diene formation in the LDL solution” value in the assay on MPO [3] (20 µM, MPO/H2O2/nitrite, H2O2 300 µM) is listed as “totally suppresses”; with MPO [3] (100 µM, MPO/H2O2/nitrite, H2O2 300 µM), “totally suppresses”. Besides, in the assay on MPO [3] (25 µM, H2O2 100 µM, NaNO2 100 µM, MPO 20 nM), the “MPO/H2O2/nitrite-mediated LDL oxidation” value is “completely suppressed”.
